Data taken from PubChem BioAssay (NCI).
Several values for one entry are separate records, joined by “and”; a condition that tells them apart may be missing. Equal values may be shown once.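 Step 1: Grow cells in 96-well plates. Step 2: Expose to compound for 48 hours at 5 concentrations. Step 3: Interpolate endpoints linearly; if unreached, use highest concentration. The concentration for 50% growth inhibition is given as GI50. At the TGI there is no net growth.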

Assays:
Experiment in all cases: DTP human tumour cell line panel, 48 h
EKVX NSCLC = system: EKVX NSCLC
OVCAR-3 ovarian = system: OVCAR-3 ovarian
DU-145 prostate = system: DU-145 prostate
MDA-MB-435 = system: MDA-MB-435
HCC-2998 colon = system: HCC-2998 colon
MCF7 breast = system: MCF7 breast
UACC-257 melanoma = system: UACC-257 melanoma
SK-MEL-28 melanoma = system: SK-MEL-28 melanoma
MDA-MB-231 breast = system: MDA-MB-231 breast
HL-60(TB) leukemia = system: HL-60(TB) leukemia

Structure (SMILES) | GI50 (EKVX NSCLC) [nM] | TGI (EKVX NSCLC) | GI50 (OVCAR-3 ovarian) [nM] | TGI (OVCAR-3 ovarian) | TGI (DU-145 prostate) | GI50 (MDA-MB-435) [nM] | TGI (MDA-MB-435) | TGI (HCC-2998 colon) [nM] | GI50 (MCF7 breast) [nM] | TGI (MCF7 breast) | GI50 (UACC-257 melanoma) [nM] | TGI (UACC-257 melanoma) | GI50 (SK-MEL-28 melanoma) [nM] | TGI (SK-MEL-28 melanoma) | GI50 (MDA-MB-231 breast) [nM] | TGI (MDA-MB-231 breast) | GI50 (HL-60(TB) leukemia) [nM] | TGI (HL-60(TB) leukemia) | GI50 (DU-145 prostate) [nM] | GI50 (HCC-2998 colon) [nM]
CC1OC(OC2C(O[C@H]3CC[C@@]4(C)C(=CC[C@H]5[C@@H]6C[C@@H]7O[C@]8(CC[C@@H](C)CO8)[C@@H](C)[C@@H]7[C@@]6(C)CC[C@@H]54)C3)OC(CO)C(OC3OC(CO)C(O)C3O)C2O)C(O)C(O)C1O (stereo partly drawn) | 1050 | 1770 nM and 2230 nM | 1490 | 1790 nM and 2820 nM | 2260 nM and 2150 nM | 434 | 2000 nM and 1570 nM | 1190 | 1110 | 1520 nM and 2300 nM | 1140 | 1710 nM and 2350 nM | 210 | 1370 nM and 522 nM | 497 | 1600 nM and 1650 nM | 506 | 1770 nM and 1890 nM |  | 
O=c1nc2[nH]c3c(-c4n[nH]c(=O)[nH]c4=O)cccc3c2n[nH]1 | > 100000 | > 100000 nM | > 100000 | > 100000 nM | > 100000 nM | > 100000 | > 100000 nM | > 100000 | > 100000 | > 100000 nM | > 100000 | > 100000 nM | > 100000 | > 100000 nM | > 100000 | > 100000 nM | > 100000 | > 100000 nM | > 100000 | > 100000
COc1c(O)c2c3c(c1OC)-c1ccccc1CC3N(S(=O)(=O)c1ccc(C)cc1)CC2 (stereo not drawn) | 4040 | > 50000 nM | 1180 | 2680 nM | 6410 nM | 1070 | 2920 nM | 34100 | 1650 | 23500 nM | 1800 | > 50000 nM | 2510 | > 50000 nM | 2010 | > 50000 nM | 1180 | 7460 nM | 1620 | 4010
